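Step 1: Grow cells in 96-well plates. Step 2: Expose to compound for 48 hours at 5 concentrations. Step 3: Interpolate endpoints linearly; if unreached, use highest concentration. Abbreviation: GI50, concentration required for 50% inhibition of growth.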 Calls of active or inactive are those of the source. Rule as the data show it: active = GI50 up to about 1.1 µM and inactive = higher.
Experiments:
Assay in all cases: growth of human tumour cells (NCI), 48 h
SK-MEL-28 = system: SK-MEL-28
CAKI-1 = system: CAKI-1
DU-145 = system: DU-145
SNB-19 = system: SNB-19
SK-OV-3 = system: SK-OV-3
BT-549 = system: BT-549
EKVX = system: EKVX
M14 = system: M14
PC-3 = system: PC-3
SF-539 = system: SF-539
SK-MEL-5 = system: SK-MEL-5
MDA-MB-231 = system: MDA-MB-231
NCI-H23 = system: NCI-H23
MDA-N = system: MDA-N
SNB-75 = system: SNB-75
UACC-257 = system: UACC-257
HOP-62 = system: HOP-62
KM12 = system: KM12
786-0 = system: 786-0
HCC 2998 = system: HCC 2998
A549 = system: A549
MDA-MB-435 = system: MDA-MB-435
OVCAR-8 = system: OVCAR-8
LOX IMVI = system: LOX IMVI
HCT-116 = system: HCT-116
ACHN = system: ACHN
SN12C = system: SN12C
TK-10 = system: TK-10
UO-31 = system: UO-31
MCF7 = system: MCF7
COLO 205 = system: COLO 205
SK-MEL-2 = system: SK-MEL-2
OVCAR-5 = system: OVCAR-5
K562 = system: K562
UACC-62 = system: UACC-62
Malme-3M = system: Malme-3M
SW-620 = system: SW-620
NCI-H460 = system: NCI-H460
MOLT-4 = system: MOLT-4
CCRF-CEM = system: CCRF-CEM
T47D = system: T47D
IGROV-1 = system: IGROV-1
U-251 = system: U-251
HT-29 = system: HT-29
HCT-15 = system: HCT-15
SF-295 = system: SF-295
OVCAR-3 = system: OVCAR-3
RXF 393 = system: RXF 393
Hs-578T = system: Hs-578T
NCI/ADR-RES = system: NCI/ADR-RES
NCI-H522 = system: NCI-H522
SF-268 = system: SF-268
SR = system: SR
RPMI-8226 = system: RPMI-8226
A498 = system: A498
OVCAR-4 = system: OVCAR-4
HL-60 = system: HL-60
NCI-H226 = system: NCI-H226
HOP-92 = system: HOP-92

Measured: GI50

CCOC(=O)c1c2ccccc2n2c(N)c(C(N)=O)nnc12
inactive: SK-MEL-28 > 100 µM | CAKI-1 32.8 µM | DU-145 > 100 µM | SNB-19 19.3 µM | SK-OV-3 13.9 µM | BT-549 22.1 µM | EKVX 18 µM | M14 > 100 µM | PC-3 60 µM | SF-539 16.2 µM | SK-MEL-5 74.3 µM | MDA-MB-231 18.7 µM | NCI-H23 16.7 µM | MDA-N > 100 µM | SNB-75 11.7 µM | UACC-257 99.8 µM | HOP-62 17.3 µM | KM12 > 100 µM | 786-0 21.9 µM | HCC 2998 > 100 µM | A549 > 100 µM | MDA-MB-435 > 100 µM | OVCAR-8 16.1 µM | LOX IMVI 28.2 µM | HCT-116 31.1 µM | ACHN 6.07 µM | SN12C > 100 µM | TK-10 11.3 µM | UO-31 74.3 µM | MCF7 17.7 µM | COLO 205 > 100 µM | SK-MEL-2 20.5 µM | OVCAR-5 > 100 µM | K562 > 100 µM | UACC-62 19.9 µM | Malme-3M 70.8 µM | SW-620 > 100 µM | NCI-H460 50.4 µM | MOLT-4 > 100 µM | CCRF-CEM > 100 µM | T47D 43.1 µM | IGROV-1 1.33 µM | U-251 15.2 µM | HT-29 > 100 µM | SF-295 33.1 µM | OVCAR-3 > 100 µM | RXF 393 16.1 µM | Hs-578T 4.36 µM | NCI/ADR-RES 35.3 µM | NCI-H522 28.8 µM | SF-268 16 µM | SR > 100 µM | RPMI-8226 > 100 µM | A498 21 µM | OVCAR-4 > 100 µM | HL-60 > 100 µM
78.9 µM: HCT-15

COc1cc(C2c3c(ccc4ccccc34)C(=O)C3CCC(=O)N32)cc(OC)c1OC (centres undefined)
> 50 µM: HCT-15
inactive: SK-MEL-28 > 50 µM | CAKI-1 > 50 µM | DU-145 > 50 µM | NCI-H226 > 50 µM | SNB-19 > 50 µM | SK-OV-3 > 50 µM | BT-549 > 50 µM | EKVX > 50 µM | M14 > 50 µM | PC-3 > 50 µM | SF-539 > 50 µM | MDA-MB-231 > 50 µM | NCI-H23 > 50 µM | MDA-N > 50 µM | SNB-75 > 50 µM | UACC-257 > 50 µM | HOP-62 > 50 µM | KM12 > 50 µM | 786-0 > 50 µM | A549 > 50 µM | MDA-MB-435 > 50 µM | OVCAR-8 > 50 µM | HCT-116 > 50 µM | ACHN > 50 µM | SN12C > 50 µM | UO-31 > 50 µM | MCF7 > 50 µM | COLO 205 > 50 µM | SK-MEL-2 > 50 µM | OVCAR-5 > 50 µM | K562 > 50 µM | UACC-62 > 50 µM | SW-620 > 50 µM | NCI-H460 > 50 µM | MOLT-4 > 50 µM | CCRF-CEM > 50 µM | T47D > 50 µM | IGROV-1 > 50 µM | U-251 > 50 µM | HT-29 > 50 µM | SF-295 > 50 µM | OVCAR-3 > 50 µM | RXF 393 > 50 µM | Hs-578T > 50 µM | NCI/ADR-RES > 50 µM | NCI-H522 25.5 µM | SF-268 > 50 µM | SR 48.4 µM | RPMI-8226 46.8 µM | A498 > 50 µM | HOP-92 > 50 µM | OVCAR-4 > 50 µM | HL-60 > 50 µM

O=C(O)C1CCN(Cc2oc(CO)cc(=O)c2O)C1 (centres undefined)
> 100 µM: HCT-15
inactive: SK-MEL-28 > 100 µM | CAKI-1 > 100 µM | DU-145 > 100 µM | NCI-H226 > 100 µM | SNB-19 > 100 µM | SK-OV-3 > 100 µM | BT-549 > 100 µM | EKVX > 100 µM | M14 > 100 µM | PC-3 > 100 µM | SK-MEL-5 > 100 µM | MDA-MB-231 > 100 µM | NCI-H23 > 100 µM | MDA-N > 100 µM | SNB-75 > 100 µM | UACC-257 > 100 µM | HOP-62 > 100 µM | KM12 > 100 µM | 786-0 > 100 µM | A549 > 100 µM | MDA-MB-435 > 100 µM | OVCAR-8 > 100 µM | LOX IMVI > 100 µM | HCT-116 > 100 µM | ACHN > 100 µM | SN12C > 100 µM | TK-10 > 100 µM | UO-31 > 100 µM | MCF7 > 100 µM | COLO 205 > 100 µM | SK-MEL-2 > 100 µM | OVCAR-5 > 100 µM | K562 > 100 µM | UACC-62 > 100 µM | Malme-3M > 100 µM | SW-620 > 100 µM | NCI-H460 > 100 µM | MOLT-4 > 100 µM | CCRF-CEM > 100 µM | T47D > 100 µM | IGROV-1 > 100 µM | U-251 > 100 µM | HT-29 > 100 µM | SF-295 > 100 µM | OVCAR-3 > 100 µM | RXF 393 > 100 µM | Hs-578T > 100 µM | NCI/ADR-RES > 100 µM | NCI-H522 > 100 µM | SF-268 > 100 µM | SR > 100 µM | RPMI-8226 > 100 µM | A498 > 100 µM | HOP-92 > 100 µM | OVCAR-4 > 100 µM | HL-60 > 100 µM

COc1ccc(C2CC(=O)Oc3ccccc3O2)cc1 (centres undefined)
inactive: SK-MEL-28 > 100 µM | DU-145 > 100 µM | NCI-H226 > 100 µM | SNB-19 > 100 µM | SK-OV-3 > 100 µM | BT-549 > 100 µM | EKVX > 100 µM | PC-3 > 100 µM | SF-539 > 100 µM | SK-MEL-5 > 100 µM | MDA-MB-231 > 100 µM | NCI-H23 > 100 µM | MDA-N 98.2 µM | SNB-75 > 100 µM | UACC-257 > 100 µM | HOP-62 > 100 µM | KM12 > 100 µM | 786-0 > 100 µM | HCC 2998 > 100 µM | A549 > 100 µM | MDA-MB-435 70.5 µM | OVCAR-8 > 100 µM | HCT-116 > 100 µM | ACHN > 100 µM | SN12C > 100 µM | TK-10 > 100 µM | UO-31 88.5 µM | MCF7 > 100 µM | COLO 205 > 100 µM | K562 > 100 µM | UACC-62 > 100 µM | SW-620 > 100 µM | NCI-H460 > 100 µM | MOLT-4 > 100 µM | CCRF-CEM 52.8 µM | T47D > 100 µM | IGROV-1 > 100 µM | U-251 > 100 µM | HT-29 > 100 µM | SF-295 > 100 µM | OVCAR-3 > 100 µM | RXF 393 > 100 µM | Hs-578T 66.7 µM | NCI/ADR-RES > 100 µM | NCI-H522 32.1 µM | SF-268 > 100 µM | SR 52.7 µM | RPMI-8226 > 100 µM | OVCAR-4 > 100 µM | HL-60 42.8 µM
> 100 µM: HCT-15

Source: ChEMBL document CHEMBL1201862, “PubChem BioAssay data set” (2004)
